From the kinase profiling compilation of Christmann-Franck et al. (2016)

Legend:
Assay in all cases: Caliper, Mobility shift assay off-chip
PAK2 (human) = PAK2 (human) (UniProt Q13177)
PRKCE (human) = PRKCE (human) (UniProt Q02156)
IKBKB (human) = IKBKB (human) (UniProt O14920)
BRSK2 (human) = BRSK2 (human) (UniProt Q8IWQ3)
INSR (human) = INSR (human) (UniProt P06213)
SYK (human) = SYK (human) (UniProt P43405)
PRKCB1 (human) = PRKCB1 (human) (UniProt P05771)
ROCK2 (human) = ROCK2 (human) (UniProt O75116)
AURKB (human) = AURKB (human) (UniProt Q96GD4)
Sequence of AURKB (human) (Q96GD4 whole entry, looked up): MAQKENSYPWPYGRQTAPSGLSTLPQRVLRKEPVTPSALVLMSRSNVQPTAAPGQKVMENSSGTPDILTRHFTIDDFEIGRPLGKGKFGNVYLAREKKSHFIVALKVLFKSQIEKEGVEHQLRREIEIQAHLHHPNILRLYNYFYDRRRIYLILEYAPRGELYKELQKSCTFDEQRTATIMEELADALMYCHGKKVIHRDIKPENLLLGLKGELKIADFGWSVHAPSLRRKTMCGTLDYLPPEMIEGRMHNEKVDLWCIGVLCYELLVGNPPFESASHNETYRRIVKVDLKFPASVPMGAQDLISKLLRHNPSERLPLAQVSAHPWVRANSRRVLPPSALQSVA

CHEK1 (human) = CHEK1 (human) (UniProt O14757)
RPS6KA1 KD1 KD2 (human) = RPS6KA1 KD1 KD2 (human) (UniProt Q15418)
TSSK2 (human) = TSSK2 (human) (UniProt Q96PF2)
Sequence of TSSK2 (human) (Q96PF2 whole entry, looked up): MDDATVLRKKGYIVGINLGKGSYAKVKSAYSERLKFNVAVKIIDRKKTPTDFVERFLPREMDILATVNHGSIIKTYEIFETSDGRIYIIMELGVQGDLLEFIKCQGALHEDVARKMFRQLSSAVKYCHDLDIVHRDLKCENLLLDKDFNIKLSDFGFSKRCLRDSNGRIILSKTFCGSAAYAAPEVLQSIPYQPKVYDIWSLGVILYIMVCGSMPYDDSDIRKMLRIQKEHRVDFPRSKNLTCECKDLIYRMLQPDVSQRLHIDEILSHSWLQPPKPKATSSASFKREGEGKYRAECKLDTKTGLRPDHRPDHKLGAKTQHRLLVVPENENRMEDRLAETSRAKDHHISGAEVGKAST

KDR (human) = KDR (human) (UniProt P35968)
HCK (human) = HCK (human) (UniProt P08631)
[1] = test system: FGFR2 (human), P21802 [N549H]
Sequence of FGFR2 (human), P21802 [N549H] (P21802 whole entry N549H, looked up): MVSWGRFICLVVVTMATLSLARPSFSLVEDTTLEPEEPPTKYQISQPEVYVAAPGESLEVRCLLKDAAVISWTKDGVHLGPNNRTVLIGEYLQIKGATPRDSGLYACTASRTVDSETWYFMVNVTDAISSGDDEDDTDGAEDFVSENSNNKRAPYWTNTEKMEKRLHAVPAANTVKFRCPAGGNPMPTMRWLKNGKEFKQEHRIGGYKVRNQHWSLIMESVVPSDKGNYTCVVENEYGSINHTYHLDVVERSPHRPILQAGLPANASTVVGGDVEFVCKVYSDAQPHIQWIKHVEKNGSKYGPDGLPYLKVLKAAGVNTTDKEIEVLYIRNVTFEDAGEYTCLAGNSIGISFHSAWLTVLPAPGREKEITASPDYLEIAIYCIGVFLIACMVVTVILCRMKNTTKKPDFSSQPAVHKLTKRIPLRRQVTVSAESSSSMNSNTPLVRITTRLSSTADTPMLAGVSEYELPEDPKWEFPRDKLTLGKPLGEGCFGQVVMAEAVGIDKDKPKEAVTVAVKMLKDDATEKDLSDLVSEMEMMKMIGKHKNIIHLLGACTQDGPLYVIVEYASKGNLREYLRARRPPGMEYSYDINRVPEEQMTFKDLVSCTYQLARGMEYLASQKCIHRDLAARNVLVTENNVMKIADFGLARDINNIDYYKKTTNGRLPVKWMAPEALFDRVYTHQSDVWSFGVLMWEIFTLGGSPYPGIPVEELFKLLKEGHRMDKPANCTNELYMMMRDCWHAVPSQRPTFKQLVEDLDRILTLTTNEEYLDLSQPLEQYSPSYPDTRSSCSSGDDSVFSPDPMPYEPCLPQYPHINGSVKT

NEK2 (human) = NEK2 (human) (UniProt P51955)
Sequence of NEK2 (human) (P51955 whole entry, looked up): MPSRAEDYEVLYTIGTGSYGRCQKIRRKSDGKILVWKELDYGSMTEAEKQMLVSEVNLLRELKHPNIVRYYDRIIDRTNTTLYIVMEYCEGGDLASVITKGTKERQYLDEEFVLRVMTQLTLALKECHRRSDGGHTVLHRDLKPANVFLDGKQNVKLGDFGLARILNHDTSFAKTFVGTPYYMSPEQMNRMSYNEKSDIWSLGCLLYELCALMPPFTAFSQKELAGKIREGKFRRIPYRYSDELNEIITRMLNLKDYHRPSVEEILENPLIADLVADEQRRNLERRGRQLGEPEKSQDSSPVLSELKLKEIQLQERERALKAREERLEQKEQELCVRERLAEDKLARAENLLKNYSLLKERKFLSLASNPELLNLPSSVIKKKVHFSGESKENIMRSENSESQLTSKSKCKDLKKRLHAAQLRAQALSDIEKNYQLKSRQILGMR

MAPK11 (human) = MAPK11 (human) (UniProt Q15759)
DYRK1A (human) = DYRK1A (human) (UniProt Q13627)
MAP4K4 (human) = MAP4K4 (human) (UniProt O95819)
PRKACA (human) = PRKACA (human) (UniProt P17612)
GSK3B (human) = GSK3B (human) (UniProt P49841)
Sequence of GSK3B (human) (P49841 whole entry, looked up): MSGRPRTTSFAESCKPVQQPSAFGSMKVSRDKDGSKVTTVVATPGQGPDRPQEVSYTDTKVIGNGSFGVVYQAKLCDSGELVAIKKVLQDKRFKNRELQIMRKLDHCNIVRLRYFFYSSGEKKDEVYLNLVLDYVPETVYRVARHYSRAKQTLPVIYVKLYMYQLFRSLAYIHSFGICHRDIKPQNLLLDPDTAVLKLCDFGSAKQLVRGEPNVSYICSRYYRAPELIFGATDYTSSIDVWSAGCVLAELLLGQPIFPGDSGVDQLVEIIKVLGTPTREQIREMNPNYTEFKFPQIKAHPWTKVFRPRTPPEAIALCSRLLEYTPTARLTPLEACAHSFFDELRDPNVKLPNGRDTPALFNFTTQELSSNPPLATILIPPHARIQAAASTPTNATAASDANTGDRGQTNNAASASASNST

TSSK1B (human) = TSSK1B (human) (UniProt Q9BXA7)
RPS6KA3 KD1 KD2 (human) = RPS6KA3 KD1 KD2 (human) (UniProt P51812)
Sequence of RPS6KA3 KD1 KD2 (human) (P51812 whole entry, looked up): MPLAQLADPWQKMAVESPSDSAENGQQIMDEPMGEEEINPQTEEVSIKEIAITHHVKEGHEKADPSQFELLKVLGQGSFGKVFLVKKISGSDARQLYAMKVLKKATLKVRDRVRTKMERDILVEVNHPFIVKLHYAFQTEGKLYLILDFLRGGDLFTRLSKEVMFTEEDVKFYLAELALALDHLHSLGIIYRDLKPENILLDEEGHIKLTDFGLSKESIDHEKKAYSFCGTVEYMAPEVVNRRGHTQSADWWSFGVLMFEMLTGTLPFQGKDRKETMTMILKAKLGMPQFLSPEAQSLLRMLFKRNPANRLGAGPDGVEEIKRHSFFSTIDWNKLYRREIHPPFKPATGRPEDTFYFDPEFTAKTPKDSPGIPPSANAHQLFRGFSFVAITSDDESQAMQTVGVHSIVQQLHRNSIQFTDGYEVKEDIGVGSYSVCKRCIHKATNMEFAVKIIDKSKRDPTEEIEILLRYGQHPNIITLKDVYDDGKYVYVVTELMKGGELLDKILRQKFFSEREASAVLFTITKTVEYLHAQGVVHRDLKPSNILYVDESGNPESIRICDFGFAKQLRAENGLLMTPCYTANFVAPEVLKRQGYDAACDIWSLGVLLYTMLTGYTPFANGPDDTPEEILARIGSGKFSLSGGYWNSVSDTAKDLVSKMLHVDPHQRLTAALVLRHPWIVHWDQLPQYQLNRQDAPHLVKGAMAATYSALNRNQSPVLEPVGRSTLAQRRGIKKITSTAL

PDGFRA (human) = PDGFRA (human) (UniProt P16234)
LCK (human) = LCK (human) (UniProt P06239)
Sequence of LCK (human) (P06239 whole entry, looked up): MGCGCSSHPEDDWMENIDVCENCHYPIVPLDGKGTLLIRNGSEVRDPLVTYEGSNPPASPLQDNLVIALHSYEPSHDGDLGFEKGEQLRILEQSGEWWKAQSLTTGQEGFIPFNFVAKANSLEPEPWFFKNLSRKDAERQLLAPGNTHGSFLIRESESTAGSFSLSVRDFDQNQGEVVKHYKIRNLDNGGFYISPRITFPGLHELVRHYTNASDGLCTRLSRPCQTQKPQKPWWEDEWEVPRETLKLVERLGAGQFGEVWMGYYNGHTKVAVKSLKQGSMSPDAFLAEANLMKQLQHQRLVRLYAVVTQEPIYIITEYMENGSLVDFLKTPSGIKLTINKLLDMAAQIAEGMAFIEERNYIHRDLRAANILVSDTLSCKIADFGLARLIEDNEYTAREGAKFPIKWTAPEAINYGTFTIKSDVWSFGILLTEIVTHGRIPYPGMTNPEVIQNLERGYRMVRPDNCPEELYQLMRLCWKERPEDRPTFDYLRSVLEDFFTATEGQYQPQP

PRKD2 (human) = PRKD2 (human) (UniProt Q9BZL6)
Sequence of PRKD2 (human) (Q9BZL6 whole entry, looked up): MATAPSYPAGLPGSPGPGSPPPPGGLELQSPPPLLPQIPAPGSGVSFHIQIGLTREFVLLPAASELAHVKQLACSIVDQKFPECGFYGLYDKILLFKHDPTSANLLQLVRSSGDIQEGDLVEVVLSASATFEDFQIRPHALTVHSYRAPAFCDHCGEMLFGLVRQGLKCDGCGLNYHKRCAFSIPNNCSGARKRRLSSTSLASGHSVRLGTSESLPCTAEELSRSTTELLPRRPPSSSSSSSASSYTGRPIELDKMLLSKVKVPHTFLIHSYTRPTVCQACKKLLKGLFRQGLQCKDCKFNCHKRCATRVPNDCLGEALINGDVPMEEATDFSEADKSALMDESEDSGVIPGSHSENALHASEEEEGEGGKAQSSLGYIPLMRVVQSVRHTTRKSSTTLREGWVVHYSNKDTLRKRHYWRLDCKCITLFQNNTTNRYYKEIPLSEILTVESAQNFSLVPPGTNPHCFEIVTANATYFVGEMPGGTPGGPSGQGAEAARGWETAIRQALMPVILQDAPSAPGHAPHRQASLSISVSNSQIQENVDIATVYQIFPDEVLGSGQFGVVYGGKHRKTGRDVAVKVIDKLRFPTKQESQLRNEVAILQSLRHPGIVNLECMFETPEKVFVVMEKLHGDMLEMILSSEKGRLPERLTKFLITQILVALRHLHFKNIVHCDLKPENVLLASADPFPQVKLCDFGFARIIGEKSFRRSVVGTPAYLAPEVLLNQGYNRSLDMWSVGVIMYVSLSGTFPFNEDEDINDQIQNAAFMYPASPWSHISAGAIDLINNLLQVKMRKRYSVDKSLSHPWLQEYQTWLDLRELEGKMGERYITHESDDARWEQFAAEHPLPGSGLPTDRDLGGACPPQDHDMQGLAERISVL

RAF1 (human) = RAF1 (human) (UniProt P04049)
SRC (human) = SRC (human) (UniProt P12931)
[2] = test system: ABL1 (human), P00519 [H396P]
IRAK4 (human) = IRAK4 (human) (UniProt Q9NWZ3)
Sequence of IRAK4 (human) (Q9NWZ3 whole entry, looked up): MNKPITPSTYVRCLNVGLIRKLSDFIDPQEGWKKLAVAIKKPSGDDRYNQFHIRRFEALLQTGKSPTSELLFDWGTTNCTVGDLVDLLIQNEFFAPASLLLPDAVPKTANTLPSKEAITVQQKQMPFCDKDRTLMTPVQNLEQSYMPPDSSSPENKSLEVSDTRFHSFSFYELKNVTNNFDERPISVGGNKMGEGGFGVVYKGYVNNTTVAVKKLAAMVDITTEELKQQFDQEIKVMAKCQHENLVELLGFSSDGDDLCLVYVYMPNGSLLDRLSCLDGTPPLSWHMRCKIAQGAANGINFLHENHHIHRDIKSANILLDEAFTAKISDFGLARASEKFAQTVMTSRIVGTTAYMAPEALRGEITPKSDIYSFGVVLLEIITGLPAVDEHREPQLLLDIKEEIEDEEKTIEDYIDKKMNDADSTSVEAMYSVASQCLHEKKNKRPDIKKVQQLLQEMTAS

CAMK4 (human) = CAMK4 (human) (UniProt Q16566)
PIM1 (human) = PIM1 (human) (UniProt P11309)
FGFR2 (human) = FGFR2 (human) (UniProt P21802)
Sequence of FGFR2 (human) (P21802 whole entry, looked up): as the sequence (P21802 whole entry N549H, looked up) above, with H549N counted along it

[3] = test system: ABL1 (human), P00519 [T315I]

Cn1cc(-c2cnc3ccc4ccc(CS(=O)(=O)NC5CCCCC5)cc4c(=O)c3c2)cn1
inhibition (PAK2 (human); compound 0.01 µM): 4.4% | inhibition (PAK2 (human); compound 0.1 µM): 4.9% | inhibition (PRKCE (human); compound 0.01 µM): -0.5% | inhibition (PRKCE (human); compound 0.1 µM): 3.8% | inhibition (IKBKB (human); compound 0.01 µM): 3.8% | inhibition (IKBKB (human); compound 0.1 µM): -0.4% | inhibition (BRSK2 (human); compound 0.01 µM): 0.3% | inhibition (BRSK2 (human); compound 0.1 µM): 9.7% | inhibition (INSR (human); compound 0.01 µM): 3.1% | inhibition (INSR (human); compound 0.1 µM): 3.1% | inhibition (SYK (human); compound 0.01 µM): 1.3% | inhibition (SYK (human); compound 0.1 µM): -4.4% | inhibition (PRKCB1 (human); compound 0.01 µM): -6% | inhibition (PRKCB1 (human); compound 0.1 µM): 1.4% | inhibition (ROCK2 (human); compound 0.01 µM): 6.2% | inhibition (ROCK2 (human); compound 0.1 µM): 21.2% | inhibition (AURKB (human); compound 0.01 µM): -0.1% | inhibition (AURKB (human); compound 0.1 µM): 11.7% | inhibition (CHEK1 (human); compound 0.01 µM): 4.3% | inhibition (CHEK1 (human); compound 0.1 µM): 1.3% | inhibition (RPS6KA1 KD1 KD2 (human); compound 0.01 µM): 1.3% | inhibition (RPS6KA1 KD1 KD2 (human); compound 0.1 µM): 3.4% | inhibition (TSSK2 (human); compound 0.01 µM): 2.5% | inhibition (TSSK2 (human); compound 0.1 µM): 0.7% | inhibition (KDR (human); compound 0.01 µM): 3.5% | inhibition (KDR (human); compound 0.1 µM): -10% | inhibition (HCK (human); compound 0.01 µM): 3.5% | inhibition (HCK (human); compound 0.1 µM): 7.6% | inhibition ([1]; compound 0.01 µM): -3.9% | inhibition ([1]; compound 0.1 µM): 12.4% | inhibition (NEK2 (human); compound 0.01 µM): 0.9% | inhibition (NEK2 (human); compound 0.1 µM): -2.6% | inhibition (MAPK11 (human); compound 0.01 µM): -7.7% | inhibition (MAPK11 (human); compound 0.1 µM): 4.9% | inhibition (DYRK1A (human); compound 0.01 µM): -1% | inhibition (DYRK1A (human); compound 0.1 µM): 6.4% | inhibition (MAP4K4 (human); compound 0.01 µM): -2.1% | inhibition (MAP4K4 (human); compound 0.1 µM): 9.2% | inhibition (PRKACA (human); compound 0.01 µM): 2.8% | inhibition (PRKACA (human); compound 0.1 µM): -0.1% | inhibition (GSK3B (human); compound 0.01 µM): 4.9% | inhibition (GSK3B (human); compound 0.1 µM): 1.3% | inhibition (TSSK1B (human); compound 0.01 µM): -3.1% | inhibition (TSSK1B (human); compound 0.1 µM): 1.9% | inhibition (RPS6KA3 KD1 KD2 (human); compound 0.01 µM): -3.6% | inhibition (RPS6KA3 KD1 KD2 (human); compound 0.1 µM): -3.8% | inhibition (PDGFRA (human); compound 0.01 µM): 0.2% | inhibition (PDGFRA (human); compound 0.1 µM): 9% | inhibition (LCK (human); compound 0.01 µM): 8.2% | inhibition (LCK (human); compound 0.1 µM): 7.3% | inhibition (PRKD2 (human); compound 0.01 µM): 1.6% | inhibition (PRKD2 (human); compound 0.1 µM): -3.6% | inhibition (RAF1 (human); compound 0.01 µM): 2.2% | inhibition (RAF1 (human); compound 0.1 µM): 4.5% | inhibition (SRC (human); compound 0.01 µM): 2.2% | inhibition (SRC (human); compound 0.1 µM): -1.4% | inhibition ([2]; compound 0.01 µM): 2.2% | inhibition ([2]; compound 0.1 µM): 0.5% | inhibition (IRAK4 (human); compound 0.01 µM): -10% | inhibition (IRAK4 (human); compound 0.1 µM): 6.7% | inhibition (CAMK4 (human); compound 0.01 µM): 2.1% | inhibition (CAMK4 (human); compound 0.1 µM): 2.3% | inhibition (PIM1 (human); compound 0.01 µM): -11.4% | inhibition (PIM1 (human); compound 0.1 µM): -4.6% | inhibition (FGFR2 (human); compound 0.01 µM): 0.5% | inhibition (FGFR2 (human); compound 0.1 µM): 16.5% | inhibition ([3]; compound 0.01 µM): 0.6% | inhibition ([3]; compound 0.1 µM): 0.3%

O=C(CCc1ccc2ccc3ncc(C4CCNCC4)cc3c(=O)c2c1)NCc1ccccn1
inhibition (PAK2 (human); compound 0.1 µM): 2.1% | inhibition (PAK2 (human); compound 1.0 µM): 13.1% | inhibition (PRKCE (human); compound 0.1 µM): 9.3% | inhibition (PRKCE (human); compound 1.0 µM): -0.4% | inhibition (IKBKB (human); compound 0.1 µM): 1.2% | inhibition (IKBKB (human); compound 1.0 µM): -3.1% | inhibition (BRSK2 (human); compound 0.1 µM): 3.4% | inhibition (BRSK2 (human); compound 1.0 µM): -3.3% | inhibition (INSR (human); compound 0.1 µM): 5.1% | inhibition (INSR (human); compound 1.0 µM): 3.5% | inhibition (SYK (human); compound 0.1 µM): -0.6% | inhibition (SYK (human); compound 1.0 µM): -0.5% | inhibition (PRKCB1 (human); compound 0.1 µM): 1.2% | inhibition (PRKCB1 (human); compound 1.0 µM): -12.2% | inhibition (ROCK2 (human); compound 0.1 µM): -2.6% | inhibition (ROCK2 (human); compound 1.0 µM): 4.2% | inhibition (AURKB (human); compound 0.1 µM): 8% | inhibition (AURKB (human); compound 1.0 µM): 27.6% | inhibition (CHEK1 (human); compound 0.1 µM): -0.6% | inhibition (CHEK1 (human); compound 1.0 µM): 2.9% | inhibition (RPS6KA1 KD1 KD2 (human); compound 0.1 µM): -2.2% | inhibition (RPS6KA1 KD1 KD2 (human); compound 1.0 µM): 4% | inhibition (TSSK2 (human); compound 0.1 µM): -2.3% | inhibition (TSSK2 (human); compound 1.0 µM): 1.3% | inhibition (KDR (human); compound 0.1 µM): 4.9% | inhibition (KDR (human); compound 1.0 µM): 16.8% | inhibition (HCK (human); compound 0.1 µM): -1.8% | inhibition (HCK (human); compound 1.0 µM): 3.1% | inhibition ([1]; compound 0.1 µM): -8.4% | inhibition ([1]; compound 1.0 µM): 0.9% | inhibition (NEK2 (human); compound 0.1 µM): 6.6% | inhibition (NEK2 (human); compound 1.0 µM): 2.7% | inhibition (MAPK11 (human); compound 0.1 µM): 0.6% | inhibition (MAPK11 (human); compound 1.0 µM): -1% | inhibition (DYRK1A (human); compound 0.1 µM): 5.6% | inhibition (DYRK1A (human); compound 1.0 µM): -6.7% | inhibition (MAP4K4 (human); compound 0.1 µM): 5% | inhibition (MAP4K4 (human); compound 1.0 µM): -0.2% | inhibition (PRKACA (human); compound 0.1 µM): 2.5% | inhibition (PRKACA (human); compound 1.0 µM): 4.8% | inhibition (GSK3B (human); compound 0.1 µM): -0.6% | inhibition (GSK3B (human); compound 1.0 µM): -3.3% | inhibition (TSSK1B (human); compound 0.1 µM): 5.4% | inhibition (TSSK1B (human); compound 1.0 µM): -1.6% | inhibition (RPS6KA3 KD1 KD2 (human); compound 0.1 µM): 0.7% | inhibition (RPS6KA3 KD1 KD2 (human); compound 1.0 µM): 62.5% | inhibition (PDGFRA (human); compound 0.1 µM): 1.5% | inhibition (PDGFRA (human); compound 1.0 µM): 3.9% | inhibition (LCK (human); compound 0.1 µM): -3.4% | inhibition (LCK (human); compound 1.0 µM): -2.9% | inhibition (PRKD2 (human); compound 0.1 µM): 7.5% | inhibition (PRKD2 (human); compound 1.0 µM): 0% | inhibition (RAF1 (human); compound 0.1 µM): 3.2% | inhibition (RAF1 (human); compound 1.0 µM): -9.1% | inhibition (SRC (human); compound 0.1 µM): 1.1% | inhibition (SRC (human); compound 1.0 µM): 6.6% | inhibition ([2]; compound 0.1 µM): 1.4% | inhibition ([2]; compound 1.0 µM): 1.1% | inhibition (IRAK4 (human); compound 0.1 µM): -10.2% | inhibition (IRAK4 (human); compound 1.0 µM): 0.3% | inhibition (CAMK4 (human); compound 0.1 µM): -1.7% | inhibition (CAMK4 (human); compound 1.0 µM): -3.4% | inhibition (PIM1 (human); compound 0.1 µM): -2.4% | inhibition (PIM1 (human); compound 1.0 µM): -4.4% | inhibition (FGFR2 (human); compound 0.1 µM): 1.4% | inhibition (FGFR2 (human); compound 1.0 µM): 7.8% | inhibition ([3]; compound 0.1 µM): 2.7% | inhibition ([3]; compound 1.0 µM): 1.3%
